Holding throughout (experiment): biochemical
What all share (parameters): DiscoveRx KINOMEscan active site-directed competition binding; percent of control kinase bound to immobilised ligand

The target of one test is T1, FLT3(D835Y) (Homo sapiens, UniProt P36888, D835Y).
T1 sequence (P36888 1-993 D835Y): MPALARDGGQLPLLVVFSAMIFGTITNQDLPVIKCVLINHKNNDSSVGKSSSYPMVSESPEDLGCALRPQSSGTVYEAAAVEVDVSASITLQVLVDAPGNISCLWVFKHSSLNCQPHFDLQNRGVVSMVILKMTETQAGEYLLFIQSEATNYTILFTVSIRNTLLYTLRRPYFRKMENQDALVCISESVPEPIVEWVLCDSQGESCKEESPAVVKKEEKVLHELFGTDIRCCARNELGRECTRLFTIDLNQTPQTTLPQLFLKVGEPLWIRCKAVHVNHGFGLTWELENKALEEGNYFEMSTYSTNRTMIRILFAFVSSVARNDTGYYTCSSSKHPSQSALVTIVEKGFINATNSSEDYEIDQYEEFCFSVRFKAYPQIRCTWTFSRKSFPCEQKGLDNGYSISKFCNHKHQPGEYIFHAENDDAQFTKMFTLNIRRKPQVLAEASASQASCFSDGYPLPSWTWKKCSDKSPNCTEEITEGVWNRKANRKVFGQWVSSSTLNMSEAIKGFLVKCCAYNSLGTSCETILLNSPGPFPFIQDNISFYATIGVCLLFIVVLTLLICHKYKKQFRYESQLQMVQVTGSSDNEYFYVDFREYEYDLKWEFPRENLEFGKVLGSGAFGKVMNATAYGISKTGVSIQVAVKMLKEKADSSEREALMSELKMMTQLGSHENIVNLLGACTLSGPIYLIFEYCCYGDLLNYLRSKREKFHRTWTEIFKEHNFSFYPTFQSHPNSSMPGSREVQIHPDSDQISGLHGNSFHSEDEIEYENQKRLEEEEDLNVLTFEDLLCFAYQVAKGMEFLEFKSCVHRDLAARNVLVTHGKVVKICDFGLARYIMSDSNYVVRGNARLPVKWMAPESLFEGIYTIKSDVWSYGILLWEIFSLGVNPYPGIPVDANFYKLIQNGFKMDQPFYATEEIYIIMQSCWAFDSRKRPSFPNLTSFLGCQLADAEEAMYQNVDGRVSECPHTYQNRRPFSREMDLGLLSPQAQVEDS

The target of the next test is KIT(L576P) (Homo sapiens, UniProt P10721, L576P).
Sequence of KIT(L576P) (P10721 whole entry L576P): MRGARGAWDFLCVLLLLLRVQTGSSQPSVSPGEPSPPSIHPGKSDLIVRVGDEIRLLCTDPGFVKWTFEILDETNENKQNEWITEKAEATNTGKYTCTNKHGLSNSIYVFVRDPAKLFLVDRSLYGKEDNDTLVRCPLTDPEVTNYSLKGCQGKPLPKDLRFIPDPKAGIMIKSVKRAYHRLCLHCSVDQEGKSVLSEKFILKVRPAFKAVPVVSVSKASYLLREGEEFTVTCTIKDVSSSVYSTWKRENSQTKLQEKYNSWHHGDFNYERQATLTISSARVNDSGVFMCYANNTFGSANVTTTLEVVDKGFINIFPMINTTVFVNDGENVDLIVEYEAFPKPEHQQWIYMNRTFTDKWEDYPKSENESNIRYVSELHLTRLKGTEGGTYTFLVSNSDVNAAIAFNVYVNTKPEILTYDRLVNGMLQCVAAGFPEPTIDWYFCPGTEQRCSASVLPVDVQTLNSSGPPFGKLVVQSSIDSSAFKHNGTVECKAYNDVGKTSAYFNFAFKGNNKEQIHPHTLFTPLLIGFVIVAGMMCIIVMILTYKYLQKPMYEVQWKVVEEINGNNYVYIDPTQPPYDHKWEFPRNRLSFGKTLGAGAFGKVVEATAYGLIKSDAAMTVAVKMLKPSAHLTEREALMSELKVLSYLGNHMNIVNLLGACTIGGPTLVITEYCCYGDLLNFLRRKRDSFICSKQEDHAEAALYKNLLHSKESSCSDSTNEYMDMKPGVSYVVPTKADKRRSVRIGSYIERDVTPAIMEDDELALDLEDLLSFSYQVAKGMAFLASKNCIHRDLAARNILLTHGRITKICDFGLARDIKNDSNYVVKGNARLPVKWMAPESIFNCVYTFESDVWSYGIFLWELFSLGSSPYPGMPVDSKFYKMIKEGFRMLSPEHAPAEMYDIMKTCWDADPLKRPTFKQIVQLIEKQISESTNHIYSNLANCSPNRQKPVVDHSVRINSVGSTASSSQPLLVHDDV
The next test addresses T2, PKMYT1 (Homo sapiens, UniProt Q99640).
T2 sequence (Q99640 1-499): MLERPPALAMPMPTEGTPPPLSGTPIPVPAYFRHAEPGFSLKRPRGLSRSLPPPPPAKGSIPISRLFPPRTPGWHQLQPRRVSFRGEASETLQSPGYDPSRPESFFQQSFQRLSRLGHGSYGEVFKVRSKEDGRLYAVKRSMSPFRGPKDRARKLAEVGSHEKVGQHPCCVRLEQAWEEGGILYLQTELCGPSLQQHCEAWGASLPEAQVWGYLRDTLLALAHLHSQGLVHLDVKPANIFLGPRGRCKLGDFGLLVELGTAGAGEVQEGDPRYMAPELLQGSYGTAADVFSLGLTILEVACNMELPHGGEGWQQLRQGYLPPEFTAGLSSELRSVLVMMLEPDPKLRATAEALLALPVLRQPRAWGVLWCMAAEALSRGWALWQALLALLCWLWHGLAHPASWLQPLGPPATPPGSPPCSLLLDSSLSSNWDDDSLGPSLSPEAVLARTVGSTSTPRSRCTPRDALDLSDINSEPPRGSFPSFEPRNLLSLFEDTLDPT

For a further test, the target named is T3, VPS34 (Homo sapiens, UniProt Q8NEB9).
T3 construct: gene PIK3C3
T3 sequence (Q8NEB9 whole entry): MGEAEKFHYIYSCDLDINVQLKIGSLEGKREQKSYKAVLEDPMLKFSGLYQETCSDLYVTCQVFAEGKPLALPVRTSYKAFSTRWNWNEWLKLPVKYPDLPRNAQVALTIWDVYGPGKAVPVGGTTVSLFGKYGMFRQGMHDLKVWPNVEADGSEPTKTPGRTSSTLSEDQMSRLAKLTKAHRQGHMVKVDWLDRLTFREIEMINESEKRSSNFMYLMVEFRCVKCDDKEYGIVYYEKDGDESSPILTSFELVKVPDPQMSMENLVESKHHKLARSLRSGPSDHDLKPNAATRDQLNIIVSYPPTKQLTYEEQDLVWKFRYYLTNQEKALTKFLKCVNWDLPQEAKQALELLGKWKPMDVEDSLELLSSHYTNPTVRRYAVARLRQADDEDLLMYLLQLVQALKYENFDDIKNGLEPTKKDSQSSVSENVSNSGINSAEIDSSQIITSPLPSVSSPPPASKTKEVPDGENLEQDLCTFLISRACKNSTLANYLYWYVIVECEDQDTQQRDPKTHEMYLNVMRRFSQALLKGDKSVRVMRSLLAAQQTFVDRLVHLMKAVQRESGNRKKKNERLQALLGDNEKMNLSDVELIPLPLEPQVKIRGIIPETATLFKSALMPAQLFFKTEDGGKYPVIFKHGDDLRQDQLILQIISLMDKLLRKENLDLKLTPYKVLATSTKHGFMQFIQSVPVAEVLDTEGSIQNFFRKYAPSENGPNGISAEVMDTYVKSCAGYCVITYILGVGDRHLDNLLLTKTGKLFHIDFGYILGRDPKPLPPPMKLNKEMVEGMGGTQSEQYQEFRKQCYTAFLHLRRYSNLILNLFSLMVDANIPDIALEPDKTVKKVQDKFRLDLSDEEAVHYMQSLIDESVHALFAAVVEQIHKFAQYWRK

A further test concerns the target T4, ULK2 (Homo sapiens, UniProt Q8IYT8).
T4 sequence (Q8IYT8 1-1036): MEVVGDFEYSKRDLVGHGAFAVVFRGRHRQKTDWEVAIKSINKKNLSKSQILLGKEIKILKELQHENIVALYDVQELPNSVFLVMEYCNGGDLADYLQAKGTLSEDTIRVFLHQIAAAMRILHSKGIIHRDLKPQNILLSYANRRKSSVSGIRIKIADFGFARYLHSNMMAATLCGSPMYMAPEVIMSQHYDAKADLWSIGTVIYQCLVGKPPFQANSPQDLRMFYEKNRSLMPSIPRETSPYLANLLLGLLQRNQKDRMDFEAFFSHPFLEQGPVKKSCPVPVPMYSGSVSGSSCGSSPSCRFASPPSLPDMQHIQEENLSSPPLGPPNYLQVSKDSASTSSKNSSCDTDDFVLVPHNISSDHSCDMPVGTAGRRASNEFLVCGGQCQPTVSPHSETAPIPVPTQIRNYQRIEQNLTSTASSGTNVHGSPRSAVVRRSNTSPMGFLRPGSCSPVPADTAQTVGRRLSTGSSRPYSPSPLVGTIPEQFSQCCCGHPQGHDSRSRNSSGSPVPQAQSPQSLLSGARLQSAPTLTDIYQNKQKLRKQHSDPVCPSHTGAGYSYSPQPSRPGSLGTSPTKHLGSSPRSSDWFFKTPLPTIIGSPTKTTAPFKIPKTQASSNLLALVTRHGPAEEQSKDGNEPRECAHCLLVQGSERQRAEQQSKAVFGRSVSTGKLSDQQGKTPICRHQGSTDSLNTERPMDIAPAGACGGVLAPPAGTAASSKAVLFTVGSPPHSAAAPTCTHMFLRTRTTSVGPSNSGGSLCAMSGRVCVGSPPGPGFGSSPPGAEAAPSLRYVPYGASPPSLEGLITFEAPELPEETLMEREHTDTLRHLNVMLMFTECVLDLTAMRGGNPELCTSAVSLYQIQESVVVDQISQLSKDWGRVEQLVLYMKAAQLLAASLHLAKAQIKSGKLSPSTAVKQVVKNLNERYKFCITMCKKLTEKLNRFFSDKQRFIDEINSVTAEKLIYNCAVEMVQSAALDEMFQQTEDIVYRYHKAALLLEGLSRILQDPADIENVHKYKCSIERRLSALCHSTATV

The mark [1] stands for this setting: read-out: Niraparib (MK-4827) / %Ctrl @ 10000nM.
Setting [2] is: read-out: Talazoparib (BMN 673) / %Ctrl @ 10000nM.
The mark [3] stands for this setting: read-out: Rucaparib / %Ctrl @ 10000nM, binding competition, % of control.
[4] abbreviates: read-out: Olaparib / %Ctrl @ 10000nM.

Like-named read-outs stand apart in the source and are kept apart here.

Turning to `NC(=O)c1cccc2cn(-c3ccc([C@@H]4CCCNC4)cc3)nc12` [Niraparib], the percent of control binding at 10 µM at FLT3(D835Y) (setting [1]) was 54%; at KIT(L576P) (setting [1]) it was 80%; on PKMYT1 (setting [1]), 93%; at VPS34 (setting [1]), 14%; at ULK2 (setting [1]), 93%.

Turning to `Cn1ncnc1[C@H]1c2n[nH]c(=O)c3cc(F)cc(c23)N[C@@H]1c1ccc(F)cc1` [Talazoparib], the percent of control binding at 10 µM on FLT3(D835Y) (setting [2]) was 96%; on KIT(L576P) (setting [2]), 100%; on PKMYT1 (setting [2]) it was 100%; on VPS34 (setting [2]), 100%; on ULK2 (setting [2]) it was 100%.

As for `CNCc1ccc(-c2[nH]c3cc(F)cc4c3c2CCNC4=O)cc1` [Rucaparib], on FLT3(D835Y) (binding competition, % of control), the “Rucaparib / %Ctrl @ 10000nM” value is listed as 24%. The percent of control binding at 10 µM is 88% on KIT(L576P) (setting [3]), 100% at PKMYT1 (setting [3]), 80% on VPS34 (setting [3]) and 74% on ULK2 (setting [3]).

With `O=C(c1cc(Cc2n[nH]c(=O)c3ccccc23)ccc1F)N1CCN(C(=O)C2CC2)CC1` [Olaparib], the percent of control binding at 10 µM at FLT3(D835Y) (setting [4]) came out at 87%; on KIT(L576P) (setting [4]), 100%; at PKMYT1 (setting [4]), 100%; on VPS34 (setting [4]), 90%; at ULK2 (setting [4]), 85%.

The record behind these values is paper PMC7026418, “The kinase polypharmacology landscape of clinical PARP inhibitors” (Scientific Reports, 2020).
